Measured values published in patent US20260374754A1, “N-((ISOQUINOLIN-6-YL)METHYL)-1H-PYRAZOLE-4-CARBOXAMIDE DERIVATIVES AS PLASMA KALLIKREIN INHIBITORS FOR THE TREATMENT OF HEREDITARY ANGIODEMA” (Takeda Pharmaceutical Company Limited, priority 2022, published 2026).
Where a name gives a salt, the structure may show the parent alone.

Legend:
plasma kallikrein = biological target: T1, plasma kallikrein (Homo sapiens, UniProt P03952); assay: Neat Human Plasma Assay (Fluorogenic Peptide), contact pathway-activated (FXIIa) plasma; assay type: biochemical; conditions: human citrated plasma 78% final; 10 nM human FXIIa; PFR-AMC substrate; 5 minutes; room temperature
T1 construct: PFR-AMC substrate
Method: To analyze inhibition of plasma kallikrein in an ex vivo setting, the potency of compounds was measure in contact pathway-activated plasma assays. In a fluorogenic peptide substrate assay, test compounds dissolved in DMSO were added to sodium citrate collected human or rat plasma in a 96-well microplate. Alternatively, citrated plasma was collected from rats administered the compounds orally or by IV. 10 nM of human FXIIa (Enzyme Research Laboratories) diluted in PKa buffer (20 mM Tris-HCl, pH 7.5, 150 mM NaCl, 1 mM EDTA, 0.1% PEG-8000, and 0.1% Triton X-100) was added to the plasma, followed by the […] of the profluorescent, synthetic plasma kallikrein substrate PFR-AMC (also diluted in PKa buffer). Final plasma concentration in the reaction was 78%. Fluorescence was immediately monitored by excitation/emission wavelengths of 360 nm/480 nm respectively over a period of 5 minutes in a microplate reader. The resulting linear increase in fluorescence emission (reflecting PKa proteolysis of PFR-AMC substrate) was fit to extract a proteolytic rate (fluorescent units over time), and this rate was subsequently plotted against compound inhibitor concentration. Resulting plots were fit to a standard 4-parameter IC50/IC90 equation to determine min/max values, IC50/90, and slope. All experimental steps were performed at room temperature.

[1] = biological target: human activated kallikrein enzyme (Homo sapiens, UniProt P03952); assay: Inhibition of human activated plasma kallikrein, fluorogenic PFR-AMC substrate, 500 pM enzyme format; assay type: biochemical; conditions: 500 pM activated kallikrein; 300 μM PFR-AMC; 30 min preincubation; 10 min room temperature; pH 7.5; read-out: Primary Dose Response Assay: Average EC50
In short: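 500 pM activated kallikrein preincubated 30 min at room temperature with inhibitors in pH 7.5 Tris/EDTA/NaCl buffer with PEG-400 and Triton X-100. Reaction started with 300 μM PFR-AMC, run 10 min at room temperature; AMC fluorescence read at ex 380/em 460 nm.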

Chain of human activated kallikrein enzyme (P03952 391-638 limits assumed): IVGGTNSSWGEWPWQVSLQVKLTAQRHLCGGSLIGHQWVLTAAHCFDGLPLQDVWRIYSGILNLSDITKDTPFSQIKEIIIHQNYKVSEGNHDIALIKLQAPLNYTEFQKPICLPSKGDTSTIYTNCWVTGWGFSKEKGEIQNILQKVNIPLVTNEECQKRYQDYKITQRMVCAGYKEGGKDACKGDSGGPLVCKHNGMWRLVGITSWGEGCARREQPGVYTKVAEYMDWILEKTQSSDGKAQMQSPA
Chain of human activated kallikrein enzyme (P03952 20-390 partner limits assumed): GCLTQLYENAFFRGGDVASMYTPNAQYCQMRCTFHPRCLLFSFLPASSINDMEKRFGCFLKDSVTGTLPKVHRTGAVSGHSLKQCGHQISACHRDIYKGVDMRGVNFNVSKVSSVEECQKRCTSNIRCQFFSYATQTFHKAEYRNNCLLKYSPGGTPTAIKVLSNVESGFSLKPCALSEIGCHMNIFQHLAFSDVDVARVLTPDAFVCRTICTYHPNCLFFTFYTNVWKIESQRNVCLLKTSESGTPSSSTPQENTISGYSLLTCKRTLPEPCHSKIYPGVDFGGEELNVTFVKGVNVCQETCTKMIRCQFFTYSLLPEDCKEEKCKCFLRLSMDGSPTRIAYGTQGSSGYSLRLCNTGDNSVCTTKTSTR
T1 sequence (P03952 20-638): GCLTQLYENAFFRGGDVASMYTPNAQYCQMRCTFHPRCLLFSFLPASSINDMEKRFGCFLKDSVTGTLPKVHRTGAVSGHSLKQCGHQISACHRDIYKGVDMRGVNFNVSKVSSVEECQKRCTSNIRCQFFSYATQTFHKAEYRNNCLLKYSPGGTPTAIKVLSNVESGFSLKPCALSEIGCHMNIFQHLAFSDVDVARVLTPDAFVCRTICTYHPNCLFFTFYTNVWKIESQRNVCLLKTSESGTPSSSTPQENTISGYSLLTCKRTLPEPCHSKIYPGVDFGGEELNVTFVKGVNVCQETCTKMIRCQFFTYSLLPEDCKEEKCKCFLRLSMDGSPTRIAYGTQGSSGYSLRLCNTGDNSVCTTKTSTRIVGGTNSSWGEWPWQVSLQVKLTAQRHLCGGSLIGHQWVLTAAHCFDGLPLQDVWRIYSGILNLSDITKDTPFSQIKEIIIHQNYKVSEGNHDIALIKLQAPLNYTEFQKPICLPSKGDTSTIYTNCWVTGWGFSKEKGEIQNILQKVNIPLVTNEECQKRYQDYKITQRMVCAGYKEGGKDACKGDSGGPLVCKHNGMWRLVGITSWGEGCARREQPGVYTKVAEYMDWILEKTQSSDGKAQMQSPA

Row | SMILES | IC90 (plasma kallikrein) [nM] | EC50 [1] [nM]
1 | Cc1cc2c(N)nccc2c(C)c1CNc1cc(OCc2nc3ncc(C4CC4)cn3n2)ncn1 [Example 384, 6-(((6-((6-cyclopropyl-[1,2,4]triazolo[1,5-a]pyrimidin-2-yl)methoxy)pyrimidin-4-yl)amino)methyl)-5,7-dimethylisoquinolin-1-amine] | 1000 to 5000 | 1 to 10
2 | Cc1cc2c(N)nccc2c(C)c1CNc1cc(NCc2cc3cc(C4CC4)cnc3s2)ncn1 [Example 243, N4-((1-amino-5,7-dimethylisoquinolin-6-yl)methyl)-N6-((5-cyclopropylthieno[2,3-b]pyridin-2-yl)methyl)pyrimidine-4,6-diamine] | ≤ 1000 | < 1
3 | Cc1cc2c(N)nccc2c(C)c1CNC(=O)c1ccnc(Cc2cn3cc(C4CC4)ccc3n2)c1 [Example 514, N-((1-amino-5,7-dimethylisoquinolin-6-yl)methyl)-2-((6-cyclopropylimidazo[1,2-a]pyridin-2-yl)methyl)isonicotinamide] | ≤ 1000 | < 1
4 | Cc1cc2c(N)nccc2c(C)c1CNc1cc(OCc2cc3cc(C4CC4)cc(CC(C)(C)C(N)=O)n3n2)ncn1 [Example 509, 3-(2-(((6-(((1-amino-5,7-dimethylisoquinolin-6-yl)methyl)amino)pyrimidin-4-yl)oxy)methyl)-5-cyclopropylpyrazolo[1,5-a]pyridin-7-yl)-2,2-dimethylpropanamide] | 1000 to 5000 | < 1
5 | Cc1cc2c(N)nccc2c(C)c1CNc1cc(OCc2ccc3ncc(Cl)cc3c2)ncn1 [Example 373, 6-(((6-((3-chloroquinolin-6-yl)methoxy)pyrimidin-4-yl)amino)methyl)-5,7-dimethylisoquinolin-1-amine formic acid salt] | > 5000 | 1 to 10
6 | Cc1cc2c(N)nccc2c(C)c1CNc1cc(OCc2cn3cc(C4CC4)cc(C4(F)COC4)c3n2)ncn1 [Example 272, 6-(((6-((6-cyclopropyl-8-(3-fluorooxetan-3-yl)imidazo[1,2-a]pyridin-2-yl)methoxy)pyrimidin-4-yl)amino)methyl)-5,7-dimethylisoquinolin-1-amine] | 1000 to 5000 | < 1
7 | Cc1cc2c(N)nccc2c(C)c1CNc1cc(OCc2cn3cc(C4CC4)ccc3n2)ncn1 [Example 305, 6-(((6-((6-cyclopropylimidazo[1,2-a]pyridin-2-yl)methoxy)pyrimidin-4-yl)amino)methyl)-5,7-dimethylisoquinolin-1-amine] | > 5000 | < 1
8 | Cc1cc2c(N)nccc2c(C)c1CNc1cc(OCc2cc3cc(C4CC4)cc(N4CCOC4=O)n3n2)ncn1 [Example 256, 3-(2-(((6-(((1-amino-5,7-dimethylisoquinolin-6-yl)methyl)amino)pyrimidin-4-yl)oxy)methyl)-5-cyclopropylpyrazolo[1,5-a]pyridin-7-yl)oxazolidin-2-one] | ≤ 1000 | < 1
9 | Cc1cc2c(N)nccc2c(C)c1CNc1cc(OCc2nc3ccc(C4CC4)cn3n2)ncn1 [Example 388, 6-(((6-((6-cyclopropyl-[1,2,4]triazolo[1,5-a]pyridin-2-yl)methoxy)pyrimidin-4-yl)amino)methyl)-5,7-dimethylisoquinolin-1-amine] | > 5000 | 1 to 10
10 | Cc1cc2c(N)nccc2c(C)c1CNc1cc(OCc2cc(C(N)=O)c3ncc(Cl)cc3c2)ncn1 [Example 401, 6-(((6-(((1-amino-5,7-dimethylisoquinolin-6-yl)methyl)amino)pyrimidin-4-yl)oxy)methyl)-3-chloroquinoline-8-carboxamide] | 1000 to 5000 | 1 to 10
11 | Cc1cc2c(N)nccc2c(C)c1CNc1nccn2nc(Cc3cn4cc(C5CC5)ccc4n3)nc12 [Example 498, 6-(((2-((6-cyclopropylimidazo[1,2-a]pyridin-2-yl)methyl)-[1,2,4]triazolo[1,5-a]pyrazin-8-yl)amino)methyl)-5,7-dimethylisoquinolin-1-amine] | 1000 to 5000 | 1 to 10
12 | Cc1cc2c(N)nccc2c(C)c1CNc1cc2c(ccn2Cc2cc3cc(C4CC4)cnc3s2)cn1 [Example 283, 6-(((1-((5-cyclopropylthieno[2,3-b]pyridin-2-yl)methyl)-1H-pyrrolo[3,2-c]pyridin-6-yl)amino)methyl)-5,7-dimethylisoquinolin-1-amine] | 1000 to 5000 | 1 to 10
13 | Cc1cc2c(N)nccc2c(C)c1CNC(=O)c1cnn(Cc2cn3cc(Cl)ccc3n2)c1 [Example 101, N-((1-amino-5,7-dimethylisoquinolin-6-yl)methyl)-1-((6-chloroimidazo[1,2-a]pyridin-2-yl)methyl)-1H-pyrazole-4-carboxamide] | ≤ 1000 | < 1
14 | Cc1cc2c(N)nccc2c(C)c1CNc1cc(OCc2cn3cc(C4CC4)cnc3n2)ncn1 [Example 262, 6-(((6-((6-cyclopropylimidazo[1,2-a]pyrimidin-2-yl)methoxy)pyrimidin-4-yl)amino)methyl)-5,7-dimethylisoquinolin-1-amine] | ≤ 1000 | < 1
15 | Cc1cc2c(N)nccc2c(C)c1CNc1cc(OCc2ccc3ncc(C4CC4)cc3c2)cnn1 [Example 422, 6-(((5-((3-cyclopropylquinolin-6-yl)methoxy)pyridazin-3-yl)amino)methyl)-5,7-dimethylisoquinolin-1-amine] | 1000 to 5000 | < 1
16 | Cc1cc2c(N)nccc2c(C)c1CNc1cc2c(ccn2Cc2ccc3ncccc3c2)cn1 [Example 517, 5,7-dimethyl-6-(((1-(quinolin-6-ylmethyl)-1H-pyrrolo[3,2-c]pyridin-6-yl)amino)methyl)isoquinolin-1-amine] | – | 100 to 1000
17 | CCc1cc2c(N)nccc2c(C)c1CNC(=O)c1cnn(Cc2ccccc2)c1 [Example 173, N-((1-amino-7-ethyl-5-methylisoquinolin-6-yl)methyl)-1-benzyl-1H-pyrazole-4-carboxamide] | – | 10 to 100
18 | Cc1cc2c(N)nccc2c(C)c1CNC(=O)c1cnn(Cc2cnc3c(C)cccc3c2)c1 [Example 72, N-((1-amino-5,7-dimethylisoquinolin-6-yl)methyl)-1-((8-methylquinolin-3-yl)methyl)-1H-pyrazole-4-carboxamide] | – | < 1
19 | Cc1cc2c(N)nccc2c(C)c1CNc1ccc2ncc(Cc3ccc4ccccc4c3)n2c1 [Example 522, 5,7-dimethyl-6-(((3-(naphthalen-2-ylmethyl)imidazo[1,2-a]pyridin-6-yl)amino)methyl)-isoquinolin-1-amine] | – | > 1000
20 | Cc1cc2c(N)nccc2c(C)c1CNc1cc(OCc2cn3cc(C(F)(F)F)ccc3n2)cnn1 [Example 424, 5,7-dimethyl-6-(((5-((6-(trifluoromethyl)imidazo[1,2-a]pyridin-2-yl)methoxy)pyridazin-3-yl)amino)methyl)isoquinolin-1-amine] | – | < 1
21 | Cc1cc2c(N)nccc2c(C)c1CNC(=O)c1cn(Cc2ccc(Cn3cccn3)cc2)nc1C(F)(F)F [Example 185, 1-(4-((1H-pyrazol-1-yl)methyl)benzyl)-N-((1-amino-5,7-dimethylisoquinolin-6-y1)methyl)-3-(trifluoromethyl)-1H-pyrazole-4-carboxamide] | – | < 1
22 | Cc1cc2c(N)nccc2c(C)c1CNc1cc(NCc2ccc3ncc(C(F)(F)F)cc3c2)ncn1 [Example 312, N^4-((1-amino-5,7-dimethylisoquinolin-6-yl)methyl)-N^6-((3-(trifluoromethyl)quinolin-6-yl)methyl)pyrimidine-4,6-diamine] | – | < 1
23 | Cc1cc2c(N)nccc2c(C)c1CNC(=O)c1cnn(Cc2ccc3ncccc3c2)c1 [Example 60, N-((1-amino-5,7-dimethylisoquinolin-6-yl)methyl)-1-(quinolin-6-ylmethyl)-1H-pyrazole-4-carboxamide] | – | < 1
24 | Cc1cc2c(N)nccc2c(C)c1CNc1cc(OCc2ccc(Cn3cccn3)nc2)ncn1 [Example 300, 6-(((6-((6-((1H-pyrazol-1-yl)methyl)pyridin-3-yl)methoxy)pyrimidin-4-yl)amino)methyl)-5,7-dimethylisoquinolin-1-amine] | – | 100 to 1000
25 | Cc1cc2c(N)nccc2c(C)c1CNc1cc(OC(C)c2ccc3ncc(Cl)cc3c2)cnn1 (stereo not drawn) [Example 420, 6-(((5-(1-(3-chloroquinolin-6-yl)ethoxy)pyridazin-3-yl)amino)methyl)-5,7-dimethylisoquinolin-1-amine formic acid salt] | – | < 1
26 | Cc1cc2c(N)nccc2c(C)c1CNc1ncccc1NCc1cn2cc(C3CC3)ccc2n1 [Example 506, N^2-((1-amino-5,7-dimethylisoquinolin-6-yl)methyl)-N^3-((6-cyclopropylimidazo[1,2-a]pyridin-2-yl)methyl)pyridine-2,3-diamine] | – | 10 to 100
27 | Cc1cc2c(N)nccc2c(C)c1CNc1cc(NCc2cc3c(Cl)cccc3cn2)ncn1 [Example 328, N^4-((1-amino-5,7-dimethylisoquinolin-6-yl)methyl)-N^6-((5-chloroisoquinolin-3-yl)methyl)pyrimidine-4,6-diamine, formic acid salt] | – | 1 to 10
